Reference: PMC4188605, “Biochemical and Pharmacological Characterization of the Human Lymphocyte Antigen B-Associated Transcript 5 (BAT5/ABHD16A)” (PLoS ONE, 2014)
Like-named read-outs stand apart in the source and are kept apart here.

Columns and labels:
[1] = target: T1, hABHD12 (Homo sapiens, UniProt Q8N2K0); experiment: Free fatty acid release assay, hABHD12-HEK293 lysates; format: biochemical; conditions: 25 µM substrate; without BSA; 10 and 20 min
T1 construct: expressed in transfected cells; host or cells: HEK293
T1 sequence (Q8N2K0 1-398): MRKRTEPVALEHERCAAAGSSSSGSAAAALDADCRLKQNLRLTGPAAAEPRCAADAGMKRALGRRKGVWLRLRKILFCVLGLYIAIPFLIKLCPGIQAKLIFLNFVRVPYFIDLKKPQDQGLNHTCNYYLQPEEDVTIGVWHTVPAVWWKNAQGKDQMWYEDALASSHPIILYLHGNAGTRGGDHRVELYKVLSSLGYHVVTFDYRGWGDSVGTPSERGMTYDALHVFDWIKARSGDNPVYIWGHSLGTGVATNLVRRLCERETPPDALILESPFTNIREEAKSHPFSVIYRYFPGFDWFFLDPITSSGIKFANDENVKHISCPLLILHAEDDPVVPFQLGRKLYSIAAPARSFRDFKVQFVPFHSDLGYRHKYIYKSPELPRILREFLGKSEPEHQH
Description: (§1) Figure 4 Fatty acid liberation from various substrates when incubated together with lysates of HEK293 cells expressing hBAT5 or hABHD12. […] Assay blank and fatty acid standard (C18∶1) were included for each condition. FFA content was determined at time-points 10 and 20 min. Data are mean ± SEM from quadruplicate wells in one experiment.
(§2) We adapted the Free Fatty Acid Assay Kit (Cayman Chemical Item Number 700310) to kinetically monitor fatty acid release from selected substrates using lysates of HEK293 cells (0.3 µg/well) transiently expressing hBAT5 or hABHD12 (as a positive control). The assay protocol was tailored to closely follow the scheme of the 96-well-plate glycerol assay with the exception that BSA was omitted. […] For each tested substrate, assay blank without enzyme and a fatty acid standard (C18∶1-FA, 500 pmol/well) was included.

[2] = target: T2, hBAT5 (Homo sapiens, UniProt O95870); experiment: Free fatty acid release assay, hBAT5-HEK293 lysates; format: biochemical; design: host or cells: HEK293; conditions: 25 µM substrate; without BSA; 10 and 20 min
T2 sequence (O95870 1-558): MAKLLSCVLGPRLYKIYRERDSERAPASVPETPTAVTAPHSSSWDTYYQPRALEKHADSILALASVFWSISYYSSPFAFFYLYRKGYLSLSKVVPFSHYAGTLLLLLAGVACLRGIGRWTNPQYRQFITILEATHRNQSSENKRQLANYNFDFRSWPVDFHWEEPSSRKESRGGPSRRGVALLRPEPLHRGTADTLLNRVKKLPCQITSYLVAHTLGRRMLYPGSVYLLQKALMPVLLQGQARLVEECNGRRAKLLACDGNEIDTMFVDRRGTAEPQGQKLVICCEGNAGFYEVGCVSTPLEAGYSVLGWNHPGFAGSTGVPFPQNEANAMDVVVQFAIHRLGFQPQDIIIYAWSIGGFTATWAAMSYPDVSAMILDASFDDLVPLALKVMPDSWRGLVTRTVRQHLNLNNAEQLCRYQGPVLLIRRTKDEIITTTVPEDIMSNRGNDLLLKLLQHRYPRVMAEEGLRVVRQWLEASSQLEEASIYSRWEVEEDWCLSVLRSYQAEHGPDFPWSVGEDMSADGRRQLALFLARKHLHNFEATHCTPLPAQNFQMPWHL
Description: as §1, §2

[3] = target: T2, hBAT5; experiment: Inhibition of 1-LG hydrolysis in hBAT5-HEK293 lysates (fluorescent glycerol assay); format: biochemical; design: host or cells: HEK293; conditions: for hBAT5 inhibitory activity (in words): 1-LG hydrolysis; for fold decrease in activity when methyl (40) is replaced: 5-position substituent, relative to 40; for remaining activity at 10 µM: at 10^-5 M
[4] = target: T2, hBAT5; experiment: hBAT5 substrate hydrolysis and Michaelis-Menten kinetics (glycerol assay, hBAT5-HEK293 lysates); conditions: 25 µM substrate
Description: HEK293 cells were transiently transfected with the cDNA encoding hBAT5, as detailed in the Methods section. After 48 h, cells were harvested and lysates prepared for hydrolase activity measurements using a sensitive fluorescent glycerol assay. […] Glycerol production was determined at time-point 60 min.
After 48 h, cells were harvested and lysates prepared for hydrolase activity measurements. Cellular lysates (0.3 µg/well) were incubated together with the indicated concentrations of 1-LG in assay mixes containing (+ BSA) or not (– BSA) 0.5% (w/v) BSA (A) or with 15d-PGJ2-G in assay mix containing BSA (B). […] As crude cellular lysates were used, total protein concentration was used instead of true enzyme concentration. […] Values are mean ± SEM from three independent experiments.
Glycerol liberated from the hydrolysis of glycerolipid substrates was determined kinetically using a fluorometric assay, essentially as previously described [10]. Briefly, glycerol production was coupled via a three-step enzymatic cascade to hydrogen peroxide (H2O2) dependent generation of resorufin whose fluorescence (λex 530; λem 590 nm) was kinetically monitored using a Tecan Infinite M200 plate reader (Tecan Group Ltd., Männedorf, Switzerland). The assays routinely contained 0.5% (w/v) BSA (essentially fatty acid free) as a carrier for lipophilic compounds. […] The twelve MAG substrates were tested also in assays without BSA. In addition, four commercially available PG-Gs were included. To monitor assay performance, assay blanks without enzyme, cellular background (HEK293/Mock cell lysates) as well as a glycerol standard were included for each tested substrate. Fluorescence of the assay blank was subtracted before calculation of the final results.

[5] = target: T3, MAGL (Mus musculus, UniProt O35678); experiment: Competitive ABPP, mouse brain membrane proteome: MAGL doublet; conditions: reference inhibitor at the indicated concentration, used to identify the band (refs 21, 22)
T3 sequence (O35678 1-303): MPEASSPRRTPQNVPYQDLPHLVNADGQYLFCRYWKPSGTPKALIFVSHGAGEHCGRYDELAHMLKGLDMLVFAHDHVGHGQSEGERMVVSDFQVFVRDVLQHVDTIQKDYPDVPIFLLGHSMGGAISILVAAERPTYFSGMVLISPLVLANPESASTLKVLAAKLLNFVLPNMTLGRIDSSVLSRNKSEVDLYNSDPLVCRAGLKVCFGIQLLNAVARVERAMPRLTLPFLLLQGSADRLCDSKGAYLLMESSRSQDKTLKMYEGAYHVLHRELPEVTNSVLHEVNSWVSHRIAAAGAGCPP

[6] = target: T4, ABHD6 (Mus musculus, UniProt Q8R2Y0); experiment: Competitive ABPP, mouse brain membrane proteome: ABHD6 band; conditions: reference inhibitor at the indicated concentration, used to identify the band (refs 18, 23, 24)
T4 sequence (Q8R2Y0 1-336): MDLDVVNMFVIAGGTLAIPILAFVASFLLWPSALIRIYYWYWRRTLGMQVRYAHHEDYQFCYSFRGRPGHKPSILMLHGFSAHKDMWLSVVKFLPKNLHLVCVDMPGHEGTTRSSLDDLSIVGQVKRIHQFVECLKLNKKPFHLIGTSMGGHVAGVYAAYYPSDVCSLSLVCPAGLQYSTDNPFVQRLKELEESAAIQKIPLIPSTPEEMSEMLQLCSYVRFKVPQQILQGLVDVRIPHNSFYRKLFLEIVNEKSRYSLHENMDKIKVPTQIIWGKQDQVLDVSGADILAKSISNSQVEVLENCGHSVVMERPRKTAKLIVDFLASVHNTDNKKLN

[7] = printed as LogIC50 with negative sign, 1-LG 25 µM, 30 min pretreatment, Figures 9 and 10, read-out: LogIC50 Mean ± SEM, n=3 (converted)
[8] = 1-LG 25 µM, 30 min inhibitor pretreatment, monitored 90 min, mean, n=3, read-out: IC50

## CCCCC/C=C\C/C=C\C/C=C\C/C=C\CCCC(=O)OC[C@@H](O)CO [1-AG, 1-arachidonoylglycerol]
[1]
  fatty acid release by hABHD12 (in words): hydrolyzed
[2]
  fatty acid release by hBAT5 (in words): hydrolyzed

## COc1nn(-c2ccccc2C)c(=O)o1 [compound 48]
[3]
  hBAT5 inhibitory activity (in words): inactive
[3]; at 10^-6 M, 1-LG 25 µM
  remaining activity at 1 µM: 93.4 ± 1.9%

## CCCCCCCCCCCCCCCC(=O)OC(CO)CO [MAGs C16∶0, 2-palmitoyl-rac–glycerol]
[4]; without BSA
  hydrolysis by hBAT5 (substrate utilization, in words): barely detectable hydrolysis

## CCCCC[C@H](O)/C=C/[C@H]1C(=O)C[C@H](O)[C@@H]1C/C=C\CCCC(=O)OCC(O)CO (some centres unmarked) [PGD2-G, prostaglandin D2-1-glycerol ester]
[4]; with 0.5% BSA, 60 min
  hydrolysis by hBAT5 (substrate utilization, in words): to lesser extend

## O=c1oc(OCc2ccccc2)nn1-c1cccc([N+](=O)[O-])c1 [compound 53, 5-(Benzyloxy)-3-(3-nitrophenyl)-1,3,4-oxadiazol-2(3H)-one]
[3]
  fold decrease in activity when methyl (40) is replaced: 24 fold
[3]; [7]
  IC50: 1480 nM

## COc1nn(-c2ccc(Br)cc2)c(=O)o1 [compound 45]
[3]; [8]
  IC50: 110 nM

## CCCCCCCCCCCCCCCCCC(=O)OC[C@@H](O)CO [1-SG]
[4]; with 0.5% BSA, 60 min
  hydrolysis by hBAT5 (substrate utilization, in words): not utilized

## CCCCC[C@H](O)/C=C/[C@H]1[C@H](O)CC(=O)[C@@H]1C/C=C\CCCC(=O)OCC(O)CO (some centres unmarked) [PGE2-G, prostaglandin E2-1-glycerol ester]
[4]; with 0.5% BSA, 60 min
  hydrolysis by hBAT5 (substrate utilization, in words): low

## O=c1oc(Oc2ccc([N+](=O)[O-])cc2)nn1-c1cccc([N+](=O)[O-])c1 [compound 55, 5-(4-Nitrophenoxy)-3-(3-nitrophenyl)-1,3,4-oxadiazol-2(3H)-one]
[3]
  hBAT5 inhibitory activity (in words): weakest inhibitor of this series
[3]; 1-LG 25 µM
  remaining activity at 10 µM: 50.5 ± 3.7%

## COc1nn(-c2ccc([N+](=O)[O-])cc2)c(=O)o1 [compound 41, 5-Methoxy-3-(4-nitrophenyl)-1,3,4-oxadiazol-2(3H)-one]
[3]; [8]
  IC50: 339 nM

## O=c1oc(Oc2ccccc2)nn1-c1cccc([N+](=O)[O-])c1 [compound 52, 3-(3-Nitrophenyl)-5-phenoxy-1,3,4-oxadiazol-2(3H)-one]
[3]; [8]
  IC50: 138 nM
[3]
  fold decrease in activity when methyl (40) is replaced: about twofold

## COc1nn(-c2cccc(C#N)c2)c(=O)o1 [compound 47]
[3]; [8]
  IC50: 78 nM

## CCCCC[C@H](O)/C=C/[C@@H]1[C@@H](C/C=C\CCCC(=O)OCC(O)CO)[C@@H](O)C[C@H]1O (stereo partly drawn) [PG-F2α-G, prostaglandin F2α-1-glycerol ester]
[4]; with 0.5% BSA, 60 min
  hydrolysis by hBAT5 (substrate utilization, in words): low

## COc1ccc(Oc2nn(-c3cccc([N+](=O)[O-])c3)c(=O)o2)cc1 [compound 54, 5-(4-Methoxyphenoxy)-3-(3-nitrophenyl)-1,3,4-oxadiazol-2(3H)-one]
[3]; [8]
  IC50: 631 nM
[3]
  fold decrease in activity when methyl (40) is replaced: 10 fold

## COc1nn(Cc2cccc(Oc3ccccc3)c2)c(=O)o1 [compound 49]
[3]
  hBAT5 inhibitory activity (in words): loss of hBAT5 inhibitory activity
[3]; 1-LG 25 µM
  remaining activity at 10 µM: 102 ± 8.2%

## COc1nn(Cc2cccc([N+](=O)[O-])c2)c(=O)o1 [compound 50, 5-Methoxy-3-(3-nitrobenzyl)-1,3,4-oxadiazol-2(3H)-one]
[3]
  hBAT5 inhibitory activity (in words): loss of hBAT5 inhibitory activity
[3]; 1-LG 25 µM
  remaining activity at 10 µM: 99.3 ± 4.7%

## COc1nn(-c2ccccc2F)c(=O)o1 [compound 42]
[3]; [8]
  IC50: 50 nM

## O=C(N1CCC(C(c2ccc3c(c2)OCO3)c2ccc3c(c2)OCO3)CC1)n1cncn1 [JJKK-048]
[5]
  inhibition of probe labeling of MAGL by reference inhibitor: inhibited

## COc1nn(-c2ccc(I)cc2)c(=O)o1 [compound 46]
[3]; [8]
  IC50: 355 nM

## CN(Cc1cccc(-c2ccncc2)c1)C(=O)Oc1ccc(-c2ccc(C(N)=O)cc2)cc1 [WWL70]
[6]
  inhibition of probe labeling of ABHD6 by reference inhibitor: inhibited

## CCOc1nn(-c2cccc([N+](=O)[O-])c2)c(=O)o1 [compound 51, 5-Ethoxy-3-(3-nitrophenyl)-1,3,4-oxadiazol-2(3H)-one]
[3]; [8]
  IC50: 126 nM
[3]
  fold decrease in activity when methyl (40) is replaced: about twofold

## COc1nn(-c2cccc(F)c2)c(=O)o1 [compound 43]
[3]; [7]
  IC50: 41.7 nM

## CCCCCCCC/C=C\CCCCCCCC(=O)OC[C@@H](O)COP(=O)(O)OC[C@H](N)C(=O)O [LPS, 1-oleoyl-lysophosphatidylserine]
[1]
  fatty acid release by hABHD12 (in words): catalyzed oleic acid release
[2]
  fatty acid release by hBAT5 (in words): no statistically significant liberation of oleic acid

## CCCCCCCC/C=C\CCCCCCCC(=O)OC[C@@H](O)COP(=O)(O)O [LPA, 1-oleoyl-lysophosphatidic acid]
[1]
  fatty acid release by hABHD12 (in words): not from LPA
[2]
  fatty acid release by hBAT5 (in words): no statistically significant liberation of oleic acid
